Like-named read-outs stand apart in the source and are kept apart here.
Columns and labels:
[1] = test system: metatarsals of mouse fetus; assay: Organ culture of mouse fetus metatarsals, calcein staining; assay type: cell-based; settings: 0.3 μM, 7 days organ culture, versus 0.3% DMSO negative control
Protocol: Eagle's minimum essential mediums (MEM, Life Technologies Japan Corporation (Invitrogen)) was used to prepare the organ culture medium by adding 1% of penicillin/streptomycin (Life Technologies Japan Corporation (GIBCO)), 0.25% of fetal bovine serum (Sigma-Aldrich Co. LLC.), 50 μg/ml of ascorbic acid (Wako Pure Chemical Industries, Ltd.), 1 mM of β-glycerophosphoric acid (Sigma-Aldrich Co. LLC.), and 1 μg/ml of calcein (Sigma-Aldrich Co. LLC.). As a test substance, 0.3 μM of fargesin, or as a control, 0.3% of DMSO (final cone., Wako Pure Chemical Industries, Ltd.) was added to the organ culture medium. Fargesin was used the same solution prepared in Example 1 containing 0.3% DMSO as the final concentration.
On 15 of pregnancy, mouse fetuses were took from pregnant female ICR mice (Japan SLC, Inc.) by Caesarean operation (E15.5) from the 15th days of a pregnant ICR female mouse by Caesarean section. Left and right metatarsals of the fetus were excised to be placed into the organ culture medium. The organ culture was performed under the conditions of 5% CO2 at 37 degree centigrade for 7 days to observe the effect on long axis direction.
The long axis of the bone grows depending on that of epiphyseal cartilage existing between an epiphysis and a shaft. […] Then, calcification was occurred from the occification center (ossification). […]

[2] = test system: BMCs and UAMS-32 cells co-culture; assay: Differentiation of osteoblast and osteoclast in co-culture (ALP and TRAP activity); assay type: cell-based, mouse; settings: for activity at 2 µM / activity at 6 µM / activity at 20 µM / activity at 60 µM / activity at 80 µM: Mus musculus, 120 h, 5 days co-culture, negative control = 100%
Protocol: Four-week-old ddY male mice (Japan SLC, Inc.) were killed by the cervical dislocation, and then, the long bones of left and right lower extremities were excised with muscles. All of the muscles were removed from the bones, and the femurs and shinbones were obtained. The both ends of the obtained femurs and shinbones were scraped a little by a little. The cells in the bone morrow were pushed out into the following medium by using a 2.5 ml of syringe with a needle (22G×1¼; Thermo corporation). After that, contaminants were eliminated through a filter ([…] Nylon Cell Strainer; Japan Becton, Dickinson and Company) to obtain more than 2×10^8 cells of BMCs.
Osteoblast-like cells, UAMS-32 cells, were purchased from the Institution of Physical and Chemical Research (Japan).
In order to prepare the basic medium, 10.2 g of α-MEM (powder, Life Technologies Japan Corporation (GIBCO)) was dissolved in 1 L of purified water and 2.2 g/l (w/v) of sodium bicarbonate was added. Then, it was filtered through a sterilized filter of which pore diameter was 0.22 μm (Nihon Millipore K. K). Further, the basic mediums were supplemented with 10% (v/v) fetal bovine serum (FBS) (Sigma, heat-inactivated for 30 minutes at 56° C.).
In this example, 1 μM of PGE2 and 10 nM of Vitamin D3 (both from Wako Pure Chemical Industries, Ltd.) were added to the medium to prepare a co-culture medium. By using the co-culture medium, cell suspensions of BMCs and UAMS-32 obtained as mentioned above were prepared. For the test group, 2 to 80 μM of fargesin was added, and for the negative control group, DMSO was added so as to be 0.3% of the final concentration.
BMCs were plated at the concentration of 2×10^6 cells/well, and UAMS-32 cells were plated at the concentration of 1×10^5 cells/well in each well of the 96 well plates, respectively. Then, the cells were co-cultured in the co-culture medium under the conditions of 5% CO2 and 37 degree centigrade for 5 days. The medium were changed on the 3rd days from the culture start. After cells were fixed as described in below, alkaline phosphatase (ALP) activity was measured as the index of osteoblast differentiation; tartrate-resistant acid phosphatase activity was measured as the index of osteoclast differentiation.
The cells were cultured under the above-mentioned conditions, 10% formalin aqueous solution was added into each well still standing for 10 minutes, and then ethanol was added still standing for further 1 minute to fix the cells. In order to measure TRAP activity, 10 mM sodium tartrate/50 mM citric acid buffer solution containing 1.36 mg of p-nitrophenyl sodium phosphate (Sigma-Aldrich Co. LLC.) (pH 4.6) was prepared as a substrate solution for TRAP. The substrate solution for TRAP was added to the well at the volume of 100 μl/well, and reacted for 15 to 20 minutes at a room temperature. The reaction solution was transferred into another 96 well plate, to which 100 μl/well of 0.1N NaOH was previously added to stop the reaction, and they were measured at absorbance of 405 nm.
50 mM sodium tartrate/0.1 M of sodium acetate buffer (pH 5.0) including 0.1 mg/ml naphthol AS-MX phosphate (sigma N-4875) and 0.6 mg/ml Fast red violet LB salt (both from Sigma-Aldrich Japan Co. LLC.) was prepared as TRAP staining solution. The TRAP staining solution was added to the wells to stain the cells in negative control group till they took on red color under room temperature. After that, the cells were washed with distilled water. The cells stained red and having not less than two nuclei was decided as multinuclear osteoclast, of which number was counted by using the microscope.
After the cells were cultured under the conditions, 100 μl/well of methanol cooled to −20 degree centigrade was added into the cells and stood for further 1 minute to fix the cells. […]

MC3T3-E1 cells = assay: Osteoblast activation, ALP activity in MC3T3-E1; assay type: cell-based, mouse
Protocol: MC3T3-E1 cells ((IAA) the Institution of Physical and Chemical Research), osteoblast-like cell line derived from the mouse fetus cranial bone cells, were inoculated into the 96 well plate at 4,000 cells/well. As a medium, the basal medium prepared in the Example 3 supplemented with fargesin at 2 to 80 μM was used. Pre-culture was performed by using the basal medium only under the conditions of 5% CO2 and 37 degree centigrade for 3 days. After that, the conditioned medium was changed to fresh medium with fargesin; the culture was performed under the conditions of 5% CO2 and 37 degree centigrade for 3 days. On the day 4 from the culture start, the conditioned medium was changed to the fresh medium; the culture was further performed under the conditions of 5% CO2 and 37 degree centigrade for 3 days. After the termination of the culture, the following MTT test, measurement of ALP activities, and the staining were performed.
Measurement of the ALP activity, statistical processing of the data, and the observation of differentiated cells were performed as the same way as those in Example 3, except the staining of the osteoclast cells were omitted.

SMILES: COc1ccc([C@@H]2OC[C@H]3[C@@H]2CO[C@@H]3c2ccc3c(c2)OCO3)cc1OC [fargesin, Fargesin]
- extension of the metatarsal in long axis direction (calcified area, calcein fluorescence) [1]: extended longer vertically
- cells differentiated to the osteoclast, ALP and TRAP double staining ([2]; 60 to 80 μM, co-culture): rarely observed
- activity at 2 µM ([2]; read-out: ALP activity (%)): 113 ± 15.7%
- activity at 2 µM ([2]; read-out: TRAP activity (%)): 89.5 ± 5.4%
- activity at 6 µM ([2]; read-out: ALP activity (%)): 120 ± 10.1%
- activity at 6 µM ([2]; read-out: TRAP activity (%)): 88.7 ± 7.2%
- activity at 20 µM ([2]; read-out: ALP activity (%)): 146 ± 14.4%
- activity at 20 µM ([2]; read-out: TRAP activity (%)): 74.4 ± 8.5%
- activity at 60 µM ([2]; read-out: ALP activity (%)): 164 ± 14%
- activity at 60 µM ([2]; read-out: TRAP activity (%)): 42.4 ± 7.1%
- activity at 80 µM ([2]; read-out: ALP activity (%)): 199 ± 14.6%
- activity at 80 µM ([2]; read-out: TRAP activity (%)): 35.7 ± 5.6%
- ALP stained image of osteoblast-like cells (MC3T3-E1 cells; 60 to 80 μM, MC3T3-E1): many osteoblast stained in blue were observed
- activity at 2 µM (MC3T3-E1 cells; Mus musculus, 2 μM, MC3T3-E1, negative control = 100): 82.8 ± 8%
- activity at 6 µM (MC3T3-E1 cells; Mus musculus, 6 μM, MC3T3-E1, negative control = 100): 89.8 ± 9.8%
- activity at 20 µM (MC3T3-E1 cells; Mus musculus, 20 μM, MC3T3-E1, negative control = 100): 99.8 ± 13.4%
- activity at 60 µM (MC3T3-E1 cells; Mus musculus, 60 μM, MC3T3-E1, negative control = 100): 180 ± 31.5%
- activity at 80 µM (MC3T3-E1 cells; Mus musculus, 80 μM, MC3T3-E1, negative control = 100): 167 ± 32.7%

Source: patent publication US20130253048A1, “Pharmaceutical Composition for Promoting Osteogenesis Containing Axial-equatorial Aryl-oriented Furofuran-type Lignan, and Pharmaceutical Preparation, Functional Food Product, and Health Food Product Comprising Composition” (ERINA CO., INC., priority 2010, published 2013)
